Results reported in patent US9352004B2, “Muscle-derived cells (MDCs) for treating muscle- or bone-related injury or dysfunction” (University of Pittsburgh—Of the Commonwealth System of …, priority 1998, dated 2016).
“Also recorded” adds a separate entry of the source. Marks after values point to notes of the source that are not given here.

How the values were obtained:
[1] = system: myoblasts; test: Effect of growth factors on myoblast proliferation and fusion in vitro; type: cell-based; details: 1, 10 and 100 ng/ml, 48 and 96 hours
Description: Several growth factors, including acidic and basic fibroblast growth factors (aFGF and bFGF); epidermal growth factor (EGF); insulin-like growth factor-1 (IGF-1); platelet derived growth factor (PDGF); transforming growth factor β or α (TGF-β or TGF-α); and nerve growth factor (NGF) have been investigated for their ability to enhance the myogenic activity of muscle cells in vitro. Myoblasts were cultured with these trophic factors at different concentrations (1, 10 and 100 ng/ml), and the myoblast proliferation and differentiation were monitored at 48 and 96 hours post-incubation.

[2] = system: injured muscle; test: Muscle healing and twitch/tetanic strength in vivo after muscle contusion, laceration or strain; set-up: species or system mouse; key to twitch strength / tetanic strength: (+) improvement in strength vs. non-injected muscles; (−) no improvement in strength vs. non-injected muscles; details: for number of regenerating myofibers in vivo: direct injection into injured muscle (laceration, contusion, strain)
Description: Briefly, the muscle laceration was performed by cutting the gastrocnemius muscle of a mouse with scissors at 60% of its length from its distal insertion, 75% of its width, and 50% of its thickness. The muscle contusion was made by dropping a 16 gram ball through an impactor from a height of 100 centimeters onto the mouse's gastrocnemius muscle, and the muscle strain was performed by elongating the muscle-tendon unit to a pre-determined strain point at the rate of 1 cm/min.
In order to evaluate muscle healing following injury, histological staining (hematoxylin-eosin) in conjunction with immunohistochemical techniques were employed to assess the expression of desmin and vimentin. Since desmin is a cytoskeletal protein uniformly expressed in regenerating myofibers, it has been used to specifically locate regenerating myofibers. Vimentin is expressed in mononucleated fibrocytes and macrophages and has been used herein as a marker for fibrosis. […]

[3] = system: meniscal fibrochondrocytes; test: Growth factors on meniscal fibrochondrocytes in vitro; type: cell-based; details: for expression of collagen and non-collagen proteins: meniscal fibrochondrocytes
Source text: In vitro data detail the effects of numerous growth factors on fibroblast proliferation and collagen production.

[4] = system: bladder wall; type: in vivo, rat; details: 100 μM TBH4, control areas of the bladder
Description: For gene therapy experiments, myoblasts were transduced with the adenovirus containing the human inducible nitric oxide synthase (iNOS) gene at a multiplicity of infection of 50 (MOI=50) and were injected into the bladder and studied after 2 to 7 days.
The bladder was injected with a similar solution; however, the cell concentration ranged from 1.33×10^5 to 1×10^6 cells per 10 μl injection. Transduced myoblasts were prepared by incubating them for 24 hours with adenovirus vector containing the iNOS gene at a multiplicity of infection of 50 virus particles per cell. Immunohistochemical staining was performed on the cultured cells to ensure adequate infection and iNOS protein production.
NO release in the bladder and penis was measured by placing the tip of a Naflon-coated porphyrinic microsensor (dia. 10 μM; detection limit, 5 nM; response time, 1 ms) directly on the bladder surface (mucosal and serosal) and on the corporal cavernosum, respectively.

[5] = system: urethral smooth muscle; test: Intraurethral NO donors: urethral perfusion pressure and isovolumetric bladder pressure; details: rat, in vivo, iv
Description: To first assess the role of NO donors on smooth muscle, urethral perfusion pressure and isovolumetric bladder pressure were measured with catheters inserted through the bladder dome in urethane anesthetized female S.D. rats (250-300 grams), (n=9). The catheter assembly was wedged in the bladder neck to block passage of fluid between the bladder and urethra without affecting the nerve supply to the organs. The external urethra was not catheterized. Responses were examined in the control state at an urethral saline infusion speed of 0.075 ml/min. After blocking striated urethral sphincter with intravenous alpha-bungarotoxin administration (100 mcg/kg), intraurethral drugs were administered.

[6] = system: bladder; details: rat, in vivo
Description: Micturition Pattern Measurement: Urination pattern profiles were obtained using a specialized metabolic cage which deflects voided urine for collection and quantification over a 24 hour period. Micturition parameters evaluated in the described experiments included total urine output/24 hours, number of micturitions/24 hours and mean volume per micturition (M. D. Chancellor et al., 1994, J. Urol., 151:250-254; T. Watanabe et al., 1996, J. Urol., 156:1507-1510).
To first assess the role of intravesicle NO on cyclophosphamide-induced cystitis, female S.D. rats received a single intraperitoneal injection of CYP (100 mg/kg) or vehicle. Voiding parameters (mean voided volume and number of voids) were then monitored for 24 hours in a metabolic cage. Forty-eight hours after CYP injection, bladder function was studied using continuous saline infusion (0.04 ml/min) cystometry via PE-50 transurethral catheter under urethane anesthesia.

TGF-β
Fusion (differentiation into myotubules) [1]: Inhibit | Proliferation [1]: Inhibit

b-FGF: basic fibroblast growth factor
tetanic strength ([2]; Muscle contusion): +/+ | twitch strength ([2]; Muscle contusion): +/+ | tetanic strength ([2]; Muscle laceration): +/+ | twitch strength ([2]; Muscle laceration): +/+ | tetanic strength ([2]; Muscle strain): +/+ | twitch strength ([2]; Muscle strain): +/+ | number of regenerating myofibers in vivo [2]: increase the number of regenerating myofibers | Fusion (differentiation into myotubules) [1]: Stimulate | Proliferation [1]: significantly enhanced; also recorded: Stimulate | Fusion (differentiation into myotubules) ([1]; listed as bFGF): increase myoblast differentiation into myotubules | proliferation of the meniscal fibrochondrocytes [3]: improve | expression of collagen and non-collagen proteins [3]: improve

a-FGF: acidic fibroblast growth factor
Fusion (differentiation into myotubules) [1]: Stimulate | Proliferation [1]: Inhibit | Fusion (differentiation into myotubules) ([1]; listed as aFGF): increase myoblast differentiation into myotubules

C[C@H](O)[C@H](O)[C@H]1CNc2nc(N)[nH]c(=O)c2N1 [TBH4, tetrahydrobiopterin]
duration of NO release spike [4]: < 5 s | spike in NO release [4]: 1 to 5 nM

PDGF
Fusion (differentiation into myotubules) [1]: Inhibit | Proliferation [1]: Inhibit | proliferation of the meniscal fibrochondrocytes [3]: improve | expression of collagen and non-collagen proteins [3]: improve

TGF-α: transforming growth factor α
Fusion (differentiation into myotubules) [1]: Inhibit | Proliferation [1]: Inhibit | proliferation of the meniscal fibrochondrocytes [3]: improve | expression of collagen and non-collagen proteins [3]: improve

NGF: nerve growth factor
tetanic strength ([2]; Muscle contusion): +/+* | twitch strength ([2]; Muscle contusion): +/+* | tetanic strength ([2]; Muscle laceration): −/− | twitch strength ([2]; Muscle laceration): −/− | tetanic strength ([2]; Muscle strain): − | twitch strength ([2]; Muscle strain): + | number of regenerating myofibers in vivo [2]: increase the number of regenerating myofibers | Fusion (differentiation into myotubules) [1]: increase myoblast differentiation into myotubules; also recorded: Stimulate | Proliferation [1]: significantly enhanced; also recorded: Stimulate

EGF: epidermal growth factor
Fusion (differentiation into myotubules) [1]: Inhibit | Proliferation [1]: Inhibit | proliferation of the meniscal fibrochondrocytes [3]: improve | expression of collagen and non-collagen proteins [3]: improve

alpha-bungarotoxin
high frequency oscillations of urethral pressure [5]: abolished

O=P1(N(CCCl)CCCl)NCCCO1 (stereo not shown) [CYP, cyclophosphamide]
number of micturitions during the 24 hours after CYP injection [6]: 117±86 | total micturition volume [6]: 20.5 ± 9.2 mL | voiding frequency after 7 days [6]: 38±4

IGF: insulin-like growth factor-1
tetanic strength ([2]; Muscle contusion): +/+ | twitch strength ([2]; Muscle contusion): +/+ | tetanic strength ([2]; Muscle laceration): +/+ | twitch strength ([2]; Muscle laceration): +/+ | tetanic strength ([2]; Muscle strain): +/+ | twitch strength ([2]; Muscle strain): +/+ | number of regenerating myofibers in vivo [2]: increase the number of regenerating myofibers | Fusion (differentiation into myotubules) [1]: Stimulate | Proliferation [1]: Stimulate | Fusion (differentiation into myotubules) ([1]; listed as IGF-1): increase myoblast differentiation into myotubules | Proliferation ([1]; listed as IGF-1): significantly enhanced
